Test results from patent publication US11780832B2, “Lactivicin compounds, their preparation and use as antibacterial agents” (priority 2021, dated 2023).
In brackets after ≈: the same amount, converted by molar mass.

Assays:
Type in all cases: cell-based
[1] = system: Escherichia coli Elevated AmpC; test: Synergistic activity: MIC in the presence of Avibactam
Method: (§1) Isolates were sub-cultured onto appropriate media and stocked in skim milk at −80° C. Following two subcultures from frozen stock, in vitro antimicrobial susceptibility testing was performed using the Clinical and Laboratory Standards Institute (CLSI) broth microdilution method. Briefly, fresh cultures were suspended in culture media to give a final stock inoculum size of 5×10^7 colony forming units per milliliter of broth (CFU/mL). Test compounds were prepared at a stock solution concentration equal to 128 μg/mL, then diluted to give a final an initial working concentration of 32 μg/mL. 100 μL of the stock solutions were added to the first wells in a 96-well plate and were then diluted using a 2-fold dilution method to give a range of 32-0.025 μg/mL. 100 μL of the bacterial suspensions were then added to the 96-well plates to give a final working inoculum size of 5×10^5 CFU/mL. The final compound concentration range was 16-0.0125 μg/mL. […] MICs for comparator agents were determined using custom-designed, in-house prepared 96-well broth microdilution panels.
(§2) The same method used to test the activity of the claimed compounds was used to determine their synergistic activity when combined with a β-lactamase inhibitor except that either a fixed concentration or fixed ratio of a β-lactamase inhibitor was added to the 96-well plates prior to adding the bacteria cultures. Synergistic activity was defined as the reduction of MIC of a given compound when tested using the β-lactamase inhibitor versus testing the compound in the absence of a β-lactamase inhibitor.

[2] = system: Klebsiella pneumoniae CMY-DHA; test: as above; details: row r32, in the presence of Avibactam @ 4 μg/mL
Method: as §1, §2

Escherichia coli CMY-DHA [3] = test: as above
Method: as §1, §2

[4] = system: Klebsiella oxytoca KPC-2, TEM-1; test: MIC, CLSI broth microdilution
Summary of the method: (§3)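 Genotyped isolates from ATCC or clinical specimens were passaged twice from frozen stock and tested at 5×10^5 CFU/mL final inoculum. Compounds were 2-fold diluted to final 16-0.0125 μg/mL per CLSI broth microdilution.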

[5] = system: Klebsiella pneumoniae SHV-12; test: MIC, CLSI broth microdilution; details: SHV12
Summary of the method: as §3

[6] = system: Serratia marcescens SME-2; test: MIC, CLSI broth microdilution; details: SME2
Summary of the method: as §3

[7] = system: Escherichia coli ATCC 25922; test: MIC, CLSI broth microdilution; details: ATCC25922
Summary of the method: as §3

[8] = system: Klebsiella pneumoniae OXA-163, OXA-1_OXA-30, SHV-1, TEM-1; test: MIC, CLSI broth microdilution
Summary of the method: (§4)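 CLSI broth microdilution with 2-fold serial dilutions over a final range of 16-0.0125 μg/mL. Final inoculum 5×10^5 CFU/mL, using genotyped ATCC or clinical isolates taken two subcultures from frozen stock.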

[9] = system: Escherichia coli CTX-M-15; test: MIC, CLSI broth microdilution; details: CTXM15
Summary of the method: as §3

[10] = system: Klebsiella pneumoniae OXA-48, SHV-1; test: MIC, CLSI broth microdilution
Summary of the method: as §4

[11] = system: Klebsiella pneumoniae KPC-3; test: MIC, CLSI broth microdilution; details: KPC3
Summary of the method: as §3

[12] = system: Enterobacter cloacae species complex NDM-1; test: MIC, CLSI broth microdilution
Summary of the method: as §3

[13] = system: Acinetobacter baumannii ATCC 19606; test: MIC, CLSI broth microdilution; details: ATCC19606
Summary of the method: as §3

[14] = system: Klebsiella pneumoniae KPC-2; test: MIC, CLSI broth microdilution; details: KPC2
Summary of the method: as §3

[15] = system: Klebsiella aerogenes VIM-1, SHV-12; test: MIC, CLSI broth microdilution
Summary of the method: as §3

Escherichia coli SHV-12 = test: MIC, CLSI broth microdilution; details: SHV12
Summary of the method: as §3

[16] = system: Pseudomonas aeruginosa AmpC overexpressed; test: MIC, CLSI broth microdilution
Summary of the method: as §4

[17] = system: Pseudomonas aeruginosa OprD negative; test: MIC, CLSI broth microdilution
Summary of the method: as §4

Escherichia coli CMY-2 = test: MIC, CLSI broth microdilution; details: CMY2
Summary of the method: as §3

[18] = system: Pseudomonas aeruginosa ATCC 27853; test: MIC, CLSI broth microdilution; details: ATCC27853
Summary of the method: as §3

[19] = system: Citrobacter freundii species complex OXA-181; test: MIC, CLSI broth microdilution; details: Citrobacter freundii species complex, OXA-181; read-out: MIC
Summary of the method: as §3

[20] = system: Serratia marcescens AmpC overexpressed; test: MIC, CLSI broth microdilution
Summary of the method: as §4

[21] = system: Proteus mirabilis CMY-DHA; test: MIC against CMY-DHA producing strains, compound alone; details: row r36
Method: (§5) Gram-negative and Gram-positive bacterial strains used during the in vitro minimum inhibitory concentration (MIC) determination were obtained either from the American Type Culture Collection (ATCC) or from clinical specimens. All strains were characterized genotypically and the respective antibiotic resistance markers for each strain were identified.
as §1

[22] = system: Klebsiella pneumoniae CMY-DHA; test: as above; details: row r32
Method: as §5, §1

Escherichia coli CMY-DHA [23] = test: as above
Method: as §5, §1

With `Nc1nc(/C(=N/OC2(C(=O)O)CC2)C(=O)N[C@H]2CON(C3(C(=O)O)C[C@H](N4C(=O)c5cc(O)c(O)cc5C4=O)C(=O)O3)C2=O)cs1` (stereo partly drawn) [Cmpd 1, (4S)-2-[(4S)-4-{[(2Z)-2-(2-amino-1,3-thiazol-4-yl)-2-{[(1-carboxycyclopropyl)oxy]imino}acetyl]amino}-3-oxo-1,2-oxazolidin-2-yl]-4-(5,6-dihydroxy-1,3-dioxo-1,3-dihydro-2H-isoindol-2-yl)-5-oxooxolane-2-carboxylic acid] the MIC ([1]; strain of row r10, in the presence of Avibactam @ 4 μg/mL) was “<=0.008 μg/mL”, the MIC ([1]; strain of row r11, in the presence of Avibactam @ 4 μg/mL) was “<=0.008 μg/mL” and the MIC ([1]; strain of row r12, in the presence of Avibactam @ 4 μg/mL) was 0.015 µg/mL. The MIC ([1]; strain of row r13, in the presence of Avibactam @ 4 μg/mL) was “<=0.008 μg/mL”, the MIC ([1]; strain of row r14, in the presence of Avibactam @ 4 μg/mL) was “<=0.008 μg/mL” and the MIC ([1]; strain of row r15, in the presence of Avibactam @ 4 μg/mL) was 0.06 µg/mL. The MIC [2] was 0.5 µg/mL, the MIC (Escherichia coli CMY-DHA [3]; strain of row r26, in the presence of Avibactam @ 4 μg/mL) was 0.03 µg/mL and the MIC (Escherichia coli CMY-DHA [3]; strain of row r27, in the presence of Avibactam @ 4 μg/mL) was “<=0.008 μg/mL”. The MIC (Escherichia coli CMY-DHA [3]; strain of row r28, in the presence of Avibactam @ 4 μg/mL) was “<=0.008 μg/mL”, the MIC (Escherichia coli CMY-DHA [3]; strain of row r29, in the presence of Avibactam @ 4 μg/mL) was 0.06 µg/mL and the MIC (Escherichia coli CMY-DHA [3]; strain of row r30, in the presence of Avibactam @ 4 μg/mL) was “<=0.008 μg/mL”. The MIC (Escherichia coli CMY-DHA [3]; strain of row r31, in the presence of Avibactam @ 4 μg/mL) was 0.06 µg/mL, the MIC (Escherichia coli CMY-DHA [3]; strain of row r34, in the presence of Avibactam @ 4 μg/mL) was “<=0.008 μg/mL” and the MIC (Escherichia coli CMY-DHA [3]; strain of row r35, in the presence of Avibactam @ 4 μg/mL) was “<=0.008 μg/mL”. It also gave an MIC [4] of 0.0149 µg/mL (≈ 0.0226 µM), an MIC [5] of 0.0149 µg/mL (≈ 0.0226 µM) and an MIC [6] of 0.06 µg/mL (≈ 0.0908 µM). For the same compound, the MIC [7] was 0.06 µg/mL (≈ 0.0908 µM), the MIC [8] was 0.06 µg/mL (≈ 0.0908 µM) and the MIC [9] was 1 µg/mL (≈ 1.51 µM). It also gave an MIC [10] of 0.0149 µg/mL (≈ 0.0226 µM), an MIC [11] of 0.0149 µg/mL (≈ 0.0226 µM) and an MIC [12] of 0.12 µg/mL (≈ 0.182 µM). For the same compound, the MIC [13] was 0.03 µg/mL (≈ 0.0454 µM), the MIC [14] was 0.12 µg/mL (≈ 0.182 µM) and the MIC [15] was 0.5 µg/mL (≈ 0.757 µM). For the same compound, the MIC (Escherichia coli SHV-12) was 0.5 µg/mL (≈ 0.757 µM), the MIC [16] was 0.5 µg/mL (≈ 0.757 µM) and the MIC [17] was 0.12 µg/mL (≈ 0.182 µM). The MIC (Escherichia coli CMY-2) was 1 µg/mL (≈ 1.51 µM), the MIC [18] was 0.12 µg/mL (≈ 0.182 µM) and the MIC [19] was 0.03 µg/mL (≈ 0.0454 µM). It also gave an MIC [20] of 0.12 µg/mL (≈ 0.182 µM), an MIC [21] of 2 µg/mL (≈ 3.03 µM) and an MIC [22] of 1 µg/mL (≈ 1.51 µM). The MIC (Escherichia coli CMY-DHA [23]; strain of row r26) was 1 µg/mL (≈ 1.51 µM), the MIC (Escherichia coli CMY-DHA [23]; strain of row r27) was 0.06 µg/mL (≈ 0.0908 µM) and the MIC (Escherichia coli CMY-DHA [23]; strain of row r28) was 0.25 µg/mL (≈ 0.378 µM). For the same compound, the MIC (Escherichia coli CMY-DHA [23]; strain of row r29) was 0.5 µg/mL (≈ 0.757 µM), the MIC (Escherichia coli CMY-DHA [23]; strain of row r30) was 0.5 µg/mL (≈ 0.757 µM) and the MIC (Escherichia coli CMY-DHA [23]; strain of row r31) was 2 µg/mL (≈ 3.03 µM). It also gave an MIC (Escherichia coli CMY-DHA [23]; strain of row r34) of 0.25 µg/mL (≈ 0.378 µM) and an MIC (Escherichia coli CMY-DHA [23]; strain of row r35) of 0.25 µg/mL (≈ 0.378 µM).
